This assay deals with rabbit aorta rings. Briefly: Vasorelaxant action in vitro (phenylephrine-contracted rabbit aorta rings). Conditions: Oryctolagus cuniculus, phenylephrine contraction, 37° C., 0.1% DMSO. Here is the method:
Rabbits are stunned by a blow to the neck and exsanguinated. The aorta is removed, freed from adherent tissue, divided into rings 1.5 mm wide and individually transferred under a pretension to 5 ml organ baths containing carbogen-aerated Krebs-Henseleit solution of the following composition (mM) at 37° C.: NaCl: 119; KCl: 4.8; CaCl2×2H2O: 1; MgSO4×7H2O; 1.4; KH2PO4: 1.2; NaHCO3:25; Glucose: 10. The contractile force is determined using Statham UC2 cells, amplified and digitalized by means of A/D converters (DAS-1802 HC, Keithley Instruments Munich), and recorded in parallel on linear recorders. To produce a contraction, phenylephrine is added to the bath cumulatively in increasing concentration. After several control cycles, the substance to be investigated is investigated in each further passage in increasing dose in each case and the height of the contraction is compared with the height of the contraction reached in the last previous passage. From this, the concentration is calculated which is necessary in order to reduce the height of the control value by 50% (IC50). The standard administration volume is 5 μl and the proportion of DMSO in the bath solution corresponds to 0.1%.

Regarding `Nc1nc(-c2nn(Cc3ccccc3F)c3ncccc23)ncc1-c1ccncc1` [Example 1, 2-[1-[(2-Fluorophenyl)methyl]-1H-pyrazolo[3,4-b]pyridin-3-yl]-5-(4-pyridinyl)-4-pyrimidinamine], it took 660 nM to reach half-maximal inhibition (IC50).
The figure for `Nc1nc(-c2nn(Cc3ccccc3F)c3ncccc23)nc(N)c1-c1ccncc1` [Example 4, 2-[1-(2-fluorobenzyl)-1H-pyrazolo[3,4-b]pyridine-3-yl]-5-(4-pyridinyl)-4,6-pyrimidine diamine] is 1210 nM.

The values above are taken from patent US6693102B2, “Pyridine-substituted pyrazolopyridine derivatives” (Bayer Aktiengesellschaft, priority 2000, dated 2004).
